Measured values: ChEMBL document CHEMBL1143424, “Diversity of penA alterations and subtypes in Neisseria gonorrhoeae strains from Sydney, Australia, that are less susceptible to ceftriaxone” (2007)
Values after ≈ are worked out from the molar mass of the structure shown.

Columns and labels:
Neisseria gonorrhoeae [1] = test: Antimicrobial activity against Neisseria gonorrhoeae isolate with PBP2 pattern 13 mutant NG-MAST sequence type 1148 by agar plate dilution method; type: functional
Neisseria gonorrhoeae [2] = test: Antimicrobial activity against Neisseria gonorrhoeae isolate with PBP2 pattern 13 mutant NG-MAST sequence type 1413 by agar plate dilution method; type: functional
Neisseria gonorrhoeae [3] = test: Antimicrobial activity against Neisseria gonorrhoeae isolate with PBP2 pattern 13 mutant NG-MAST sequence type 1425 by agar plate dilution method; type: functional
Neisseria gonorrhoeae [4] = test: Antimicrobial activity against Neisseria gonorrhoeae isolate with PBP2 pattern 17 mutant NG-MAST sequence type 1620 by agar plate dilution method; type: functional
Neisseria gonorrhoeae [5] = test: Antimicrobial activity against Neisseria gonorrhoeae isolate with PBP2 pattern 18 mutant NG-MAST sequence type 1621 by agar plate dilution method; type: functional
Neisseria = test: Antimicrobial activity against multiresistant Gonococcus; type: functional
Neisseria gonorrhoeae [6] = test: Antimicrobial activity against Neisseria gonorrhoeae isolate with PBP2 pattern 4 mutant NG-MAST sequence type 327 by agar plate dilution method; type: functional
Neisseria gonorrhoeae [7] = test: Antimicrobial activity against Neisseria gonorrhoeae isolate with PBP2 pattern 7 mutant NG-MAST sequence type 1422 by agar plate dilution method; type: functional
Neisseria gonorrhoeae [8] = test: microbe, parasite or virus in culture
Description: Antimicrobial activity against Neisseria gonorrhoeae isolate with PBP2 pattern 13 mutant NG-MAST sequence type 1409 by agar plate dilution method

Neisseria gonorrhoeae [9] = test: microbe, parasite or virus in culture; remark: listed apart in the source
Description: Antimicrobial activity against Neisseria gonorrhoeae isolate with PBP2 pattern 13 mutant NG-MAST sequence type 1623 by agar plate dilution method

Neisseria gonorrhoeae [10] = test: microbe, parasite or virus in culture; remark: listed apart in the source
Description: Antimicrobial activity against Neisseria gonorrhoeae isolate with PBP2 pattern 13 mutant NG-MAST sequence type 1624 by agar plate dilution method

Neisseria gonorrhoeae [11] = test: microbe, parasite or virus in culture; remark: listed apart in the source
Description: Antimicrobial activity against Neisseria gonorrhoeae isolate with PBP2 pattern 13 mutant NG-MAST sequence type 1676 by agar plate dilution method

Neisseria gonorrhoeae [12] = test: microbe, parasite or virus in culture; remark: listed apart in the source
Description: Antimicrobial activity against Neisseria gonorrhoeae isolate with PBP2 pattern 17 mutant NG-MAST sequence type 1342 by agar plate dilution method

Neisseria gonorrhoeae [13] = test: microbe, parasite or virus in culture; remark: listed apart in the source
Description: Antimicrobial activity against Neisseria gonorrhoeae isolate with PBP2 pattern 18 mutant NG-MAST sequence type 864 by agar plate dilution method

Neisseria gonorrhoeae [14] = test: microbe, parasite or virus in culture; remark: listed apart in the source
Description: Antimicrobial activity against Neisseria gonorrhoeae isolate with PBP2 pattern 20 mutant NG-MAST sequence type 211 by agar plate dilution method

Neisseria gonorrhoeae [15] = test: microbe, parasite or virus in culture; remark: listed apart in the source
Description: Antimicrobial activity against Neisseria gonorrhoeae isolate bropyst serotype with PBP2 pattern 12 mutant NG-MAST sequence type 604 by agar plate dilution method

Neisseria gonorrhoeae [16] = test: microbe, parasite or virus in culture; remark: listed apart in the source
Description: Antimicrobial activity against Neisseria gonorrhoeae isolate with PBP2 pattern 12 mutant NG-MAST sequence type 604 by agar plate dilution method

Neisseria gonorrhoeae [17] = test: microbe, parasite or virus in culture; remark: listed apart in the source
Description: Antimicrobial activity against Neisseria gonorrhoeae isolate with PBP2 pattern 4 mutant NG-MAST sequence type 69 by agar plate dilution method

Neisseria gonorrhoeae [18] = test: microbe, parasite or virus in culture; remark: listed apart in the source
Description: Antimicrobial activity against Neisseria gonorrhoeae isolate with PBP2 pattern 5 mutant NG-MAST sequence type 1410 by agar plate dilution method

Neisseria gonorrhoeae [19] = test: microbe, parasite or virus in culture; remark: listed apart in the source
Description: Antimicrobial activity against Neisseria gonorrhoeae isolate with PBP2 pattern 5 mutant NG-MAST sequence type 1688 by agar plate dilution method

Neisseria gonorrhoeae [20] = test: microbe, parasite or virus in culture; remark: listed apart in the source
Description: Antimicrobial activity against Neisseria gonorrhoeae isolate with PBP2 pattern 7 mutant NG-MAST sequence type 1619 by agar plate dilution method

Neisseria gonorrhoeae [21] = test: microbe, parasite or virus in culture; remark: listed apart in the source
Description: Antimicrobial activity against Neisseria gonorrhoeae isolate with PBP2 pattern 7 mutant NG-MAST sequence type 1622 by agar plate dilution method

Neisseria gonorrhoeae [22] = test: microbe, parasite or virus in culture; remark: listed apart in the source
Description: Antimicrobial activity against Neisseria gonorrhoeae isolate with PBP2 pattern 9 mutant NG-MAST sequence type 5 by agar plate dilution method

Neisseria gonorrhoeae [23] = test: microbe, parasite or virus in culture; remark: listed apart in the source
Description: Antimicrobial activity against Neisseria gonorrhoeae isolate with PBP2 pattern 9 mutant NG-MAST sequence type 21 by agar plate dilution method

Neisseria gonorrhoeae [24] = test: microbe, parasite or virus in culture; remark: listed apart in the source
Description: Antimicrobial activity against Neisseria gonorrhoeae isolate with PBP2 pattern 10 mutant NG-MAST sequence type 1414 by agar plate dilution method

Neisseria gonorrhoeae [25] = test: microbe, parasite or virus in culture; remark: listed apart in the source
Description: Antimicrobial activity against Neisseria gonorrhoeae isolate with PBP2 pattern 10 mutant NG-MAST sequence type 1424 by agar plate dilution method

Neisseria gonorrhoeae [26] = test: microbe, parasite or virus in culture; remark: listed apart in the source
Description: Antimicrobial activity against Neisseria gonorrhoeae isolate with PBP2 pattern 10 mutant NG-MAST sequence type 1677 by agar plate dilution method

Neisseria gonorrhoeae [27] = test: microbe, parasite or virus in culture; remark: listed apart in the source
Description: Antimicrobial activity against Neisseria gonorrhoeae isolate with PBP2 pattern 10 mutant NG-MAST sequence type 326 by agar plate dilution method

Neisseria gonorrhoeae [28] = test: microbe, parasite or virus in culture; remark: listed apart in the source
Description: Antimicrobial activity against Neisseria gonorrhoeae isolate with PBP2 pattern 10 mutant NG-MAST sequence type 835 by agar plate dilution method

Neisseria gonorrhoeae [29] = test: microbe, parasite or virus in culture; remark: listed apart in the source
Description: Antimicrobial activity against Neisseria gonorrhoeae isolate with PBP2 pattern 10 mutant NG-MAST sequence type 925 by agar plate dilution method

Neisseria gonorrhoeae [30] = test: microbe, parasite or virus in culture; remark: listed apart in the source
Description: Antimicrobial activity against Neisseria gonorrhoeae isolate with PBP2 pattern 11 mutant NG-MAST sequence type 1420 by agar plate dilution method

Neisseria gonorrhoeae [31] = test: microbe, parasite or virus in culture; remark: listed apart in the source
Description: Antimicrobial activity against Neisseria gonorrhoeae isolate with PBP2 pattern 11 mutant NG-MAST sequence type 5 by agar plate dilution method

Neisseria gonorrhoeae [32] = test: microbe, parasite or virus in culture; remark: listed apart in the source
Description: Antimicrobial activity against Neisseria gonorrhoeae isolate with PBP2 pattern 12 mutant NG-MAST sequence type 1426 by agar plate dilution method

Neisseria gonorrhoeae [33] = test: microbe, parasite or virus in culture; remark: listed apart in the source
Description: Antimicrobial activity against Neisseria gonorrhoeae isolate with PBP2 pattern 12 mutant NG-MAST sequence type 1703 by agar plate dilution method

## CO/N=C(\C(=O)N[C@@H]1C(=O)N2C(C(=O)O)=C(CSc3nc(=O)c(O)nn3C)CS[C@H]12)c1csc(N)n1 [CEFTRIAXONE]
Neisseria gonorrhoeae [1]
  MIC: 0.12 µg/mL (≈ 0.216 µM)
Neisseria gonorrhoeae [2]
  MIC: 0.12 µg/mL (≈ 0.216 µM)
Neisseria gonorrhoeae [3]
  MIC: 0.12 µg/mL (≈ 0.216 µM)
Neisseria gonorrhoeae [4]
  MIC: 0.12 µg/mL (≈ 0.216 µM)
Neisseria gonorrhoeae [5]
  MIC: 0.12 µg/mL (≈ 0.216 µM)
Neisseria
  MIC: 0.5 µg/mL (≈ 0.902 µM)
Neisseria gonorrhoeae [6]
  MIC: 0.12 µg/mL (≈ 0.216 µM)
Neisseria gonorrhoeae [7]
  MIC: 0.12 µg/mL (≈ 0.216 µM)
Neisseria gonorrhoeae [8]
  MIC: 0.06 µg/mL (≈ 0.108 µM)
Neisseria gonorrhoeae [9]
  MIC: 0.06 µg/mL (≈ 0.108 µM)
Neisseria gonorrhoeae [10]
  MIC: 0.06 µg/mL (≈ 0.108 µM)
Neisseria gonorrhoeae [11]
  MIC: 0.06 µg/mL (≈ 0.108 µM)
Neisseria gonorrhoeae [12]
  MIC: 0.06 µg/mL (≈ 0.108 µM)
Neisseria gonorrhoeae [13]
  MIC: 0.06 µg/mL (≈ 0.108 µM)
Neisseria gonorrhoeae [14]
  MIC: 0.06 µg/mL (≈ 0.108 µM)
Neisseria gonorrhoeae [15]
  MIC: 0.06 µg/mL (≈ 0.108 µM)
Neisseria gonorrhoeae [16]
  MIC: 0.06 µg/mL (≈ 0.108 µM)
Neisseria gonorrhoeae [17]
  MIC: 0.06 µg/mL (≈ 0.108 µM)
Neisseria gonorrhoeae [18]
  MIC: 0.06 µg/mL (≈ 0.108 µM)
Neisseria gonorrhoeae [19]
  MIC: 0.06 µg/mL (≈ 0.108 µM)
Neisseria gonorrhoeae [20]
  MIC: 0.06 µg/mL (≈ 0.108 µM)
Neisseria gonorrhoeae [21]
  MIC: 0.06 µg/mL (≈ 0.108 µM)
Neisseria gonorrhoeae [22]
  MIC: 0.06 µg/mL (≈ 0.108 µM)
Neisseria gonorrhoeae [23]
  MIC: 0.06 µg/mL (≈ 0.108 µM)
Neisseria gonorrhoeae [24]
  MIC: 0.06 µg/mL (≈ 0.108 µM)
Neisseria gonorrhoeae [25]
  MIC: 0.06 µg/mL (≈ 0.108 µM)
Neisseria gonorrhoeae [26]
  MIC: 0.06 µg/mL (≈ 0.108 µM)
Neisseria gonorrhoeae [27]
  MIC: 0.06 µg/mL (≈ 0.108 µM)
Neisseria gonorrhoeae [28]
  MIC: 0.06 µg/mL (≈ 0.108 µM)
Neisseria gonorrhoeae [29]
  MIC: 0.06 µg/mL (≈ 0.108 µM)
Neisseria gonorrhoeae [30]
  MIC: 0.06 µg/mL (≈ 0.108 µM)
Neisseria gonorrhoeae [31]
  MIC: 0.06 µg/mL (≈ 0.108 µM)
Neisseria gonorrhoeae [32]
  MIC: 0.06 µg/mL (≈ 0.108 µM)
Neisseria gonorrhoeae [33]
  MIC: 0.06 µg/mL (≈ 0.108 µM)
